From ChEMBL document CHEMBL5360638, “Development of an Affinity-Based Probe to Profile Endogenous Human Adenosine A3 Receptor Expression” (J Med Chem, 2023)
Calls of active or inactive are those of the source. No cut-off for these calls is given here.

Experiments:
[1] = molecular target: T1, Adenosine receptor A3 (Homo sapiens) (UniProt P0DMS8); assay: Binding affinity to human A3AR at 50 nM incubated for 1 hr by SDS-PAGE analysis
T1 sequence (whole entry): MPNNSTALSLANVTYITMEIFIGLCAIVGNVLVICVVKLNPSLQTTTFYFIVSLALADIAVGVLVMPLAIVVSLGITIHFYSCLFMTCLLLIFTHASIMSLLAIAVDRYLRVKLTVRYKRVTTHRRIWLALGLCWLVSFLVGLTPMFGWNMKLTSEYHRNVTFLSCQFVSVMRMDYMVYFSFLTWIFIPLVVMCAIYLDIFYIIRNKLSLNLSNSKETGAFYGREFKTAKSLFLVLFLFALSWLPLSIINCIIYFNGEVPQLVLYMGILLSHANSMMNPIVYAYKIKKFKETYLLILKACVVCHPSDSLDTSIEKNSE

Homo sapiens = species on record: Homo sapiens; assay: Selectivity ratio of pKi for human A3AR to pKi for human A1AR
[2] = molecular target: T1, Adenosine receptor A3 (Homo sapiens); assay: Binding affinity to human A3AR expressed in CHO cells membrane at 50 nM incubated for 1 hr by SDS-PAGE analysis; assay type: cell membranes
[3] = molecular target: T1, Adenosine receptor A3 (Homo sapiens); assay: Binding affinity to human A3AR expressed in granulocytes incubated for 1 hr by flow cytometry analysis; assay type: cell-based
[4] = molecular target: T1, Adenosine receptor A3 (Homo sapiens); assay: Binding affinity to human A3AR expressed in eosinophil incubated for 1 hr by flow cytometry analysis; assay type: cell-based

| Structure (SMILES) | Activity [1] | Ratio pKi (Homo sapiens) | Activity [2] | Activity [3] | Activity [4] |
| --- | --- | --- | --- | --- | --- |
| C#CCn1c(=O)c2c(nc3cc(OC)ccn32)n(CCCNC(=O)c2ccc(S(=O)(=O)F)cc2)c1=O | Active |  |  |  |  |
| C#CCN(CCCn1c(=O)n(CCC)c(=O)c2c1nc1cc(OC)ccn12)C(=O)c1ccc(S(=O)(=O)F)cc1 | Active | > 100 |  |  |  |
| C#CCOc1ccn2c(c1)nc1c2c(=O)n(CCC)c(=O)n1CCCNC(=O)c1ccc(S(=O)(=O)F)cc1 | Active | > 17 | Active | inactive | Active |
